Assay [1] concerns the target T1, glutathione S-transferase (GST)-fused full-length human Syk protein (Homo sapiens, UniProt P43405).
T1 construct: (GST)-fused full-length human Syk protein; GST (glutathione S-transferase); purchased Carna Biosciences
Put plainly: Syk enzyme assay. The settings on record: Syk enzyme assay, Test Example 1; read-out: IC50 of Syk-inhibitory activity. It is filed as biochemical. A digest of the protocol:
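IC50 values come from a time-resolved FRET readout (615 and 665 nm) of substrate phosphorylation, measured after an EDTA stop and 1 h antibody binding. The kinase reaction ran 40 min at room temperature with 27 μM ATP and 0.4 μM biotin-peptide, following a 15 min compound preincubation with baculovirus-made GST-full-length human Syk.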

The test system of a further assay is THP-1 cells. Nature of the assay: TNFα generation assay. It is filed as cell-based, human. The settings on record: Homo sapiens, THP-1, THP-1 cells; Table 22; read-out: IC50 in TNFα generation assay. The method, then:
THP-1 cells (2×10^5 cells/ml), which were human monocytoid cells, were cultured in the presence of 10 ng/ml IFN-γ (Roche) for 2 days, so that the cells were induced to differentiate into macrophage-like cells. The differentiation-induced THP-1 cells were recovered, and the cells (1×10^6 cell/ml) were then allowed to react with a predetermined concentration of test compound at room temperature for 30 minutes. On the other hand, 100 μl of human IgG (10 μg/ml, SIGMA-ALDRICH) diluted with PBS was added to a 96-well plate, and it was then incubated at room temperature overnight. Thereafter, the resultant was washed with PBS twice to produce a human IgG-coated plate. Subsequently, a cell solution that contained a compound was inoculated on the human IgG-coated plate (5×10^4 cells/well), and it was then cultured for 7 hours. Thereafter, the cultured solution was recovered, and the amount of TNFα secreted into the culture solution was then measured by the ELISA method (Roche/R & D Systems) or the AlphaLISA method (PerkinElmer).

Some results are limits rather than exact numbers.

`NC(=O)c1cc(F)c(N[C@@H]2CCCC[C@@H]2N)nc1Nc1cc(F)cc2[nH]ccc12` (relative stereo) [Example 004-082, 6-(cis-2-aminocyclohexylamino)-5-fluoro-2-((6-fluoro-1H-indol-4-yl)amino)nicotinamide]: the IC50 in assay [1] is under 10 nM; in the assay on THP-1 cells, 130 to 200 nM.
For `CN(C)C(=O)c1cc2cc(Nc3nc(N[C@@H]4CCCC[C@@H]4N)c(F)cc3C(N)=O)ccc2[nH]1` (relative stereo) [Example 029-016, 5-((6-(cis-2-aminocyclohexylamino)-3-carbamoyl-5-fluoropyridin-2-yl)amino)-N,N-dimethyl-1H-indole-2-carboxamide] the same measures were under 10 nM and 130 to 200 nM.
For `CCCOc1cc(Nc2nc(N[C@H](C)[C@H](C)N)c(F)cc2C(N)=O)ccn1` (racemic) [Example 006-187, 6-(((2R,3S)-3-aminobutan-2-yl)amino)-5-fluoro-2-((2-propoxypyridin-4-yl)amino)nicotinamide 6-(((2S,3R)-3-aminobutan-2-yl)amino)-5-fluoro-2-((2-propoxypyridin-4-yl)amino)nicotinamide] the same measures were under 10 nM and 130 to 200 nM.
For `CCOc1ncc(Nc2nc(N[C@@H]3CCCC[C@@H]3N)c(F)cc2C(N)=O)cc1C` [Example 006-497, 6-(((1R,2S)-2-aminocyclohexyl)amino)-2-((6-ethoxy-5-methylpyridin-3-yl)amino)-5-fluoronicotinamide] the same measures were under 10 nM and 65 to 130 nM.
Regarding `CC(C)C[C@H](CN)Nc1nc(Nc2ccc3scnc3c2)c(C(N)=O)cc1F` [Example 006-147, (R)-6-((1-amino-4-methylpentan-2-yl)amino)-2-(benzo[d]thiazol-5-ylamino)-5-fluoronicotinamide], the results for the IC50 (in assay [1]; in the assay on THP-1 cells) were under 10 nM and 130 to 200 nM, respectively.
As to `Cc1nn(C)c2cc(Nc3nc(N[C@H](CC4CC4)[C@H](C)N)c(F)cc3C(N)=O)ccc12` [Example 006-485, 6-(((2R,3S)-3-amino-1-cyclopropylbutan-2-yl)amino)-2-((1,3-dimethyl-1H-indazol-6-yl)amino)-5-fluoronicotinamide], the IC50 in assay [1] is under 10 nM; in the assay with THP-1 cells, 65 to 130 nM.
For `CCn1nc(C2CC2)c2cc(Nc3nc(N[C@@H]4CCCC[C@@H]4N)c(F)cc3C(N)=O)ccc21` [Example 006-548, 6-(((1R,2S)-2-aminocyclohexyl)amino)-2-((3-cyclopropyl-1-ethyl-1H-indazol-5-yl)amino)-5-fluoronicotinamide] the same measures were under 10 nM and 65 to 130 nM.
As to `CCn1nc(C(C)C)c2cc(Nc3nc(N[C@H](CC4CC4)[C@H](C)N)c(F)cc3C(N)=O)ccc21` [Example 006-465, 6-(((2R,3S)-3-amino-1-cyclopropylbutan-2-yl)amino)-2-((1-ethyl-3-isopropyl-1H-indazol-5-yl)amino)-5-fluoronicotinamide], the IC50 is under 10 nM in assay [1] and 130 to 200 nM in the assay on THP-1 cells.
On to `CCn1nc(C)c2cc(Nc3nc(NC4CCCCC4N)c(F)cc3C(N)=O)ccc21` (stereo not shown) [Example 002-207], for which the IC50 in assay [1] was under 10 nM; with THP-1 cells it was 65 to 130 nM.
Turning to `CCC[C@@H](Nc1nc(Nc2cc(OC)nc(OC)c2)c(C(N)=O)cc1F)[C@H](C)N` [Example 006-248, 6-(((2S,3R)-2-aminohexan-3-yl)amino)-2-((2,6-dimethoxypyridin-4-yl)amino)-5-fluoronicotinamide], the IC50 in assay [1] is under 10 nM; with THP-1 cells it was 65 to 130 nM.
With `CC(C)C[C@H](CN)Nc1nc(Nc2ccnc(-n3ccnn3)c2)c(C(N)=O)cc1F` [Example 006-143, (R)-2-((2-(1H-1,2,3-triazol-1-yl)pyridin-4-yl)amino)-6-((1-amino-4-methylpentan-2-yl)amino)-5-fluoronicotinamide], the IC50 in assay [1] is under 10 nM; with THP-1 cells it was 130 to 200 nM.
For `NC(=O)c1cc(F)c(N[C@@H]2CCCC[C@@H]2N)nc1Nc1cncc(-c2ccc3[nH]ccc3c2)c1` (relative stereo) [Example 004-076, 2-((5-(1H-indol-5-yl)pyridin-3-yl)amino)-6-(cis-2-aminocyclohexylamino)-5-fluoronicotinamide] the same measures were under 10 nM and 130 to 200 nM.
For `CCC[C@@H](Nc1nc(Nc2ccc3cccnc3c2)c(C(N)=O)cc1F)[C@H](C)N` [Example 006-244, 6-(((2S,3R)-2-aminohexan-3-yl)amino)-5-fluoro-2-((quinolin-7-yl)amino)nicotinamide] the same measures were under 10 nM and 65 to 130 nM.
For `Cc1ncc(Nc2nc(N[C@H](C3CC3)[C@H](C)N)c(F)cc2C(N)=O)cc1-n1nccn1` [Example 006-483, 6-(((1R,2S)-2-amino-1-cyclopropylpropyl)amino)-5-fluoro-2-((6-methyl-5-(2H-1,2,3-triazol-2-yl)pyridin-3-yl)amino)nicotinamide] the same measures were under 10 nM and under 65 nM.
Consider `NC(=O)c1cc(F)c(N[C@@H]2CCCC[C@@H]2N)nc1Nc1cncc(-c2ccc(N3CCCC3=O)cc2)c1` (relative stereo) [Example 004-226, 6-(cis-2-aminocyclohexylamino)-5-fluoro-2-((5-(4-(2-oxopyrrolidin-1-yl)phenyl)pyridin-3-yl)amino)nicotinamide], for which the IC50 in assay [1] is under 10 nM; in the assay on THP-1 cells, 130 to 200 nM.
For `NC(=O)c1cc(F)c(NC2CCCCC2N)nc1Nc1ccnc(-c2ccoc2)c1` (stereo not shown) [Example 002-057] the same measures were under 10 nM and 65 to 130 nM.
For `CN(C)c1cccc2cc(Nc3nc(N[C@@H]4CCCC[C@@H]4N)c(F)cc3C(N)=O)cnc12` [Example 004-032] the same measures were under 10 nM and 130 to 200 nM.
For `CCC[C@@H](Nc1nc(Nc2ccnc(-c3ccccc3F)c2)c(C(N)=O)cc1F)[C@H](C)N` [Example 006-333, 6-(((2S,3R)-2-aminohexan-3-yl)amino)-5-fluoro-2-((2-(2-fluorophenyl)pyridin-4-yl)amino)nicotinamide] the same measures were under 10 nM and 65 to 130 nM.
As for `CCc1nn(CC)c2ccc(Nc3nc(N[C@@H]4CCCC[C@@H]4N)c(F)cc3C(N)=O)cc12` [Example 006-452, 6-(((1R,2S)-2-aminocyclohexyl)amino)-2-((1,3-diethyl-1H-indazol-5-yl)amino)-5-fluoronicotinamide], the results for the IC50 (in assay [1]; with THP-1 cells) were under 10 nM and under 65 nM, respectively.
For `CCCC[C@H](CN)Nc1nc(Nc2ccc3c(cnn3CCF)c2)c(C(N)=O)cc1F` [Example 006-414, (R)-6-((1-aminohexan-2-yl)amino)-5-fluoro-2-((1-(2-fluoroethyl)-1H-indazol-5-yl)amino)nicotinamide] the same measures were under 10 nM and 65 to 130 nM.
For `CCCc1nn(CC(F)F)c2ccc(Nc3nc(N[C@@H]4CCCC[C@@H]4N)c(F)cc3C(N)=O)cc12` [Example 006-460, 6-(((1R,2S)-2-aminocyclohexyl)amino)-2-((1-(2,2-difluoroethyl)-3-propyl-1H-indazol-5-yl)amino)-5-fluoronicotinamide] the same measures were under 10 nM and 65 to 130 nM.
For `CCC[C@@H](Nc1nc(Nc2ccc3nccnc3c2)c(C(N)=O)cc1F)[C@H](C)N` [Example 006-240, 6-(((2S,3R)-2-aminohexan-3-yl)amino)-5-fluoro-2-((quinoxalin-6-yl)amino)nicotinamide] the same measures were under 10 nM and under 65 nM.
As for `CC[C@@H](Nc1nc(Nc2ccc3c(c2)c(-n2cccn2)nn3C)c(C(N)=O)cc1F)[C@H](C)N` [Example 006-596, 6-(((2S,3R)-2-aminopentan-3-yl)amino)-5-fluoro-2-((1-methyl-3-(1H-pyrazol-1-yl)-1H-indazol-5-yl)amino)nicotinamide], the IC50 in assay [1] is under 10 nM; in the assay with THP-1 cells, 65 to 130 nM.
In the case of `NC(=O)c1cc(F)c(N[C@@H]2CCCC[C@@H]2N)nc1Nc1cncc(-c2nnco2)c1` (relative stereo) [Example 004-229, 2-((5-(1,3,4-oxadiazol-2-yl)pyridin-3-yl)amino)-6-((cis-2-aminocyclohexyl)amino)-5-fluoronicotinamide], the IC50 in assay [1] was under 10 nM; in the assay with THP-1 cells it was 65 to 130 nM.
For `CCC[C@@H](Nc1nc(Nc2cncc(-n3nccn3)c2)c(C(N)=O)cc1F)[C@H](C)N` [Example 006-298, 2-((5-(2H-1,2,3-triazol-2-yl)pyridin-3-yl)amino)-6-(((2S,3R)-2-aminohexan-3-yl)amino)-5-fluoronicotinamide] the same measures were under 10 nM and under 65 nM.
For `CC[C@@H](Nc1nc(Nc2ccc3c(c2)c(OC)nn3C)c(C(N)=O)cc1F)[C@H](C)N` [Example 006-588, 6-(((2S,3R)-2-aminopentan-3-yl)amino)-5-fluoro-2-((3-methoxy-1-methyl-1H-indazol-5-yl)amino)nicotinamide] the same measures were under 10 nM and under 65 nM.
